Laboratory results published in the kinase profiling compilation of Christmann-Franck et al. (2016).

Key:
Test in all cases: KINOMEscan competition binding
Settings in all cases: compound 10.0 µM
TNK2 (human) = TNK2 (human) (UniProt Q07912)
LCK (human) = LCK (human) (UniProt P06239)
FLT1 (human) = FLT1 (human) (UniProt P17948)
CDK4 CCND1 (human) = CDK4 CCND1 (human) (UniProt P11802+P24385)
AKT1 (human) = AKT1 (human) (UniProt P31749)
STK32C (human) = STK32C (human) (UniProt Q86UX6)
SRMS (human) = SRMS (human) (UniProt Q9H3Y6)
NEK1 (human) = NEK1 (human) (UniProt Q96PY6)
RIPK1 (human) = RIPK1 (human) (UniProt Q13546)
OXSR1 (human) = OXSR1 (human) (UniProt O95747)
MATK (human) = MATK (human) (UniProt P42679)
ERN1 (human) = ERN1 (human) (UniProt O75460)
RPS6KA6 KD2 (human) = RPS6KA6 KD2 (human) (UniProt Q9UK32)
PDGFRB (human) = PDGFRB (human) (UniProt P09619)
CDK11B (human) = CDK11B (human) (UniProt P21127)
NEK11 (human) = NEK11 (human) (UniProt Q8NG66)
MAPK8 (human) = MAPK8 (human) (UniProt P45983)
ACVRL1 (human) = ACVRL1 (human) (UniProt P37023)
PKN2 (human) = PKN2 (human) (UniProt Q16513)
PAK7 (human) = PAK7 (human) (UniProt Q9P286)
MKNK2 (human) = MKNK2 (human) (UniProt Q9HBH9)
EPHA4 (human) = EPHA4 (human) (UniProt P54764)
CAMK4 (human) = CAMK4 (human) (UniProt Q16566)
AURKC (human) = AURKC (human) (UniProt Q9UQB9)
DSTYK (human) = DSTYK (human) (UniProt Q6XUX3)
MAP4K5 (human) = MAP4K5 (human) (UniProt Q9Y4K4)
EPHA3 (human) = EPHA3 (human) (UniProt P29320)
IKBKE (human) = IKBKE (human) (UniProt Q14164)
MAP2K4 (human) = MAP2K4 (human) (UniProt P45985)
CPK1 (P.falciparum) = system: CPK1 (P.falciparum)
[1] = system: ABL1 (human), P00519 [Y253F]
CSNK1G3 (human) = CSNK1G3 (human) (UniProt Q9Y6M4)
EPHA7 (human) = EPHA7 (human) (UniProt Q15375)
FES (human) = FES (human) (UniProt P07332)
SRPK2 (human) = SRPK2 (human) (UniProt P78362)
MAP3K13 (human) = MAP3K13 (human) (UniProt O43283)
ACVR1 (human) = ACVR1 (human) (UniProt Q04771)
CAMKK1 (human) = CAMKK1 (human) (UniProt Q8N5S9)
IRAK1 (human) = IRAK1 (human) (UniProt P51617)
MAP3K12 (human) = MAP3K12 (human) (UniProt Q12852)
Sequence of MAP3K12 (human) (Q12852 whole entry, looked up): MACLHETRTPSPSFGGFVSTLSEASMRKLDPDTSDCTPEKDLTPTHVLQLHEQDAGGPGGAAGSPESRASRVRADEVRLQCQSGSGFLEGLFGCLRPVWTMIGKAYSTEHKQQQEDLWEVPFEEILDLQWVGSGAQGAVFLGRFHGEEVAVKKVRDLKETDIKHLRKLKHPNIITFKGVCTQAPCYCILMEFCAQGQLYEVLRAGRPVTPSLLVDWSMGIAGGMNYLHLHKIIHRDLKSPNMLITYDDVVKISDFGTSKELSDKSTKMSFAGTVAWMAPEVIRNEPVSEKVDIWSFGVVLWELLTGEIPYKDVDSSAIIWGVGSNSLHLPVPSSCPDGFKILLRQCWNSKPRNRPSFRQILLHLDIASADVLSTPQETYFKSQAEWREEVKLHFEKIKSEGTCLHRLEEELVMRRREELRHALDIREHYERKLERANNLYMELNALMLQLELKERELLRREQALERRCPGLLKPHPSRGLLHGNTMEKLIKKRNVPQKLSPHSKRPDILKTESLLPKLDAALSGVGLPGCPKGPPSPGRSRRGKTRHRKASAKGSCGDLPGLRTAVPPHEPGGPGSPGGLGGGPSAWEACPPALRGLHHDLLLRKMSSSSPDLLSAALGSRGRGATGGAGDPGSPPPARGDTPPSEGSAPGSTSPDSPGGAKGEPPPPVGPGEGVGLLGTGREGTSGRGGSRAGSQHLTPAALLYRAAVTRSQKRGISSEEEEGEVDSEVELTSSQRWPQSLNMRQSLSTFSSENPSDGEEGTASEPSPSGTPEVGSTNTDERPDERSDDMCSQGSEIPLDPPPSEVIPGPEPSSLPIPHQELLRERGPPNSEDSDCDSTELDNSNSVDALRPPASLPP

Sequence of ACVR1 (human) (Q04771 whole entry, looked up): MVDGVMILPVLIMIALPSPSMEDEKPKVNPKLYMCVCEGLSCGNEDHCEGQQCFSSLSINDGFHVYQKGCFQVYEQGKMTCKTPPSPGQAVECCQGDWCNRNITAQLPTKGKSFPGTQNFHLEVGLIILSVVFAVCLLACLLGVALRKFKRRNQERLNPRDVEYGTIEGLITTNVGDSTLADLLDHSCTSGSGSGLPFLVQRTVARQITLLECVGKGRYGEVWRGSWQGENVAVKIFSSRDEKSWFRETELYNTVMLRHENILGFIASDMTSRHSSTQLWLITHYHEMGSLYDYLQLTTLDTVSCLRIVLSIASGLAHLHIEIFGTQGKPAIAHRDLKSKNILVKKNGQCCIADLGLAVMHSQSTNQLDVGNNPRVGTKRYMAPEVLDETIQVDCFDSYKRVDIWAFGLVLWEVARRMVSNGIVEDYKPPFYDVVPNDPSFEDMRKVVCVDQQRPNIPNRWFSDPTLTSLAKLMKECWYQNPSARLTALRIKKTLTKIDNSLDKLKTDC
Sequence of NEK1 (human) (Q96PY6 whole entry, looked up): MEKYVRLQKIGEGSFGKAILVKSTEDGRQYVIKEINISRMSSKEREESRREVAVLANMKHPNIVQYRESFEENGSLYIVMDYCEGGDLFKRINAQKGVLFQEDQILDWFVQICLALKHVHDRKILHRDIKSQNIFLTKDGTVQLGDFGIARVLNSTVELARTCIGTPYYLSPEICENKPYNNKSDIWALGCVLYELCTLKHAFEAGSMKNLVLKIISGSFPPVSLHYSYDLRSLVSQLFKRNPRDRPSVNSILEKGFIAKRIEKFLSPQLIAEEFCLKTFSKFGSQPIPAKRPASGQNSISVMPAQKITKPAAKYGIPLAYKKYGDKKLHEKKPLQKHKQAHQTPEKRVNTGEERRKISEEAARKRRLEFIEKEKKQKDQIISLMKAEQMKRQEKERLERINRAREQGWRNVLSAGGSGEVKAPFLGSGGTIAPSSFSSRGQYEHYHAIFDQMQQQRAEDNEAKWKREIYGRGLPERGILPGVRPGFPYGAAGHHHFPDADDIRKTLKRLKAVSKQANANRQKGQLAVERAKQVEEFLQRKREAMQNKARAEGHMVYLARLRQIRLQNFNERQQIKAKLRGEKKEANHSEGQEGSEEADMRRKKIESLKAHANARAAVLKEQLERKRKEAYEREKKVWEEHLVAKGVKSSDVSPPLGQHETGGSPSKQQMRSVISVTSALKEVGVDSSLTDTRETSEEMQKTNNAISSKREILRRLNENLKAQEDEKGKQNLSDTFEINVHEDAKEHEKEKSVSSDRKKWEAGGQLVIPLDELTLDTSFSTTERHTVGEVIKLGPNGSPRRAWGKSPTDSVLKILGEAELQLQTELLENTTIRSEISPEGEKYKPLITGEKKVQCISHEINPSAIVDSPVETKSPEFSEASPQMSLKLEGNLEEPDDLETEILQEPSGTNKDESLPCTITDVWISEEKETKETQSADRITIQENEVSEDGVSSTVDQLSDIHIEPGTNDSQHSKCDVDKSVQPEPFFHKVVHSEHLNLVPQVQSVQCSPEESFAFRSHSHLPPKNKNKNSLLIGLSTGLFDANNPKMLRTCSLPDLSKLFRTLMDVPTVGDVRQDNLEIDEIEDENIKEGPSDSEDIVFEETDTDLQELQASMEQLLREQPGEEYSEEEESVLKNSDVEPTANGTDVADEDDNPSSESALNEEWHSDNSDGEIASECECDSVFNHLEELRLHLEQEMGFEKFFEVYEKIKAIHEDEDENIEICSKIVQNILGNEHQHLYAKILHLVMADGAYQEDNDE
Sequence of CSNK1G3 (human) (Q9Y6M4 whole entry, looked up): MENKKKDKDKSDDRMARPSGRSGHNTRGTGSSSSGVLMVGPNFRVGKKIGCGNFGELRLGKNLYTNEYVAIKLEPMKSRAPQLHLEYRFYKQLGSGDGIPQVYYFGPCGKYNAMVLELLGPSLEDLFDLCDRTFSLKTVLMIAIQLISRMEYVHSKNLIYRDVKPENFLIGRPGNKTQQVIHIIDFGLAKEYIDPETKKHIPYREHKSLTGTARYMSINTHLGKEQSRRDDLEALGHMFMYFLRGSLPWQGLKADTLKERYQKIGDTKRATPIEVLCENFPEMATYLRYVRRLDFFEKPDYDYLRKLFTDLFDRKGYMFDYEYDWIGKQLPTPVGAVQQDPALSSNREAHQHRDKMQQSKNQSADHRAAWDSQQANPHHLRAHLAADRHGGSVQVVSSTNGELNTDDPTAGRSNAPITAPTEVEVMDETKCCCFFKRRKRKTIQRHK
Sequence of FES (human) (P07332 whole entry, looked up): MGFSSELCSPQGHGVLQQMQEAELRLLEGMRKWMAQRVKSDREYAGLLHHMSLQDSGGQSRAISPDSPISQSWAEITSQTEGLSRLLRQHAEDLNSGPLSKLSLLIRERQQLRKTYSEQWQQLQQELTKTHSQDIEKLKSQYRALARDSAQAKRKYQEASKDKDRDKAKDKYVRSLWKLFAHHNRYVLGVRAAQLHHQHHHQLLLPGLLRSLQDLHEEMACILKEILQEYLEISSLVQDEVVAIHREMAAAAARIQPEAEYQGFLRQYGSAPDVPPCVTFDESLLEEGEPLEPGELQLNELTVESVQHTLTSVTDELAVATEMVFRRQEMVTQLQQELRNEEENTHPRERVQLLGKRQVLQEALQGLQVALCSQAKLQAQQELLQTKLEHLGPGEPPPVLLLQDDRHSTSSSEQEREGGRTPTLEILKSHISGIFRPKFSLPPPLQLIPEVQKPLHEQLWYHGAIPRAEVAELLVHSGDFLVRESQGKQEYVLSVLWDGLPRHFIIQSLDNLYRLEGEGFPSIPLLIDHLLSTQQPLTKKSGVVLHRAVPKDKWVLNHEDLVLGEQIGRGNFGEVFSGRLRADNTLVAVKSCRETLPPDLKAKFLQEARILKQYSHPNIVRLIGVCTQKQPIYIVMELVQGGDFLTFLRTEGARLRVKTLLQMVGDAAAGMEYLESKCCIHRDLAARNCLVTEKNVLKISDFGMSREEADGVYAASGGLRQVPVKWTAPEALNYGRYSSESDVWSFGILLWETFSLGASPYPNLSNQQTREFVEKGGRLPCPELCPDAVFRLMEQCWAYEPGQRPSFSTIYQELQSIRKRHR
Sequence of MKNK2 (human) (Q9HBH9 whole entry, looked up): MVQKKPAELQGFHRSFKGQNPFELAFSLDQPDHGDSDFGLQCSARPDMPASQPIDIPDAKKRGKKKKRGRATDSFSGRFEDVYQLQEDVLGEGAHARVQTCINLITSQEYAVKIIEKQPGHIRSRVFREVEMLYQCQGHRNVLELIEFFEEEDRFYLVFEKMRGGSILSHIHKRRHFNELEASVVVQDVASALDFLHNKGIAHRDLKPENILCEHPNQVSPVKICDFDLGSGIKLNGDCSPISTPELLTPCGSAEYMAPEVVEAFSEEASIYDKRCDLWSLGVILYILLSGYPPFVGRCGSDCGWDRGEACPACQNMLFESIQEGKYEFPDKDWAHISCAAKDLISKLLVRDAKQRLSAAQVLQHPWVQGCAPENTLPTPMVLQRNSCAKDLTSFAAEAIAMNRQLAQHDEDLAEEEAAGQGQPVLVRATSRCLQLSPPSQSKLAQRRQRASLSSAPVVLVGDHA
Sequence of STK32C (human) (Q86UX6 whole entry, looked up): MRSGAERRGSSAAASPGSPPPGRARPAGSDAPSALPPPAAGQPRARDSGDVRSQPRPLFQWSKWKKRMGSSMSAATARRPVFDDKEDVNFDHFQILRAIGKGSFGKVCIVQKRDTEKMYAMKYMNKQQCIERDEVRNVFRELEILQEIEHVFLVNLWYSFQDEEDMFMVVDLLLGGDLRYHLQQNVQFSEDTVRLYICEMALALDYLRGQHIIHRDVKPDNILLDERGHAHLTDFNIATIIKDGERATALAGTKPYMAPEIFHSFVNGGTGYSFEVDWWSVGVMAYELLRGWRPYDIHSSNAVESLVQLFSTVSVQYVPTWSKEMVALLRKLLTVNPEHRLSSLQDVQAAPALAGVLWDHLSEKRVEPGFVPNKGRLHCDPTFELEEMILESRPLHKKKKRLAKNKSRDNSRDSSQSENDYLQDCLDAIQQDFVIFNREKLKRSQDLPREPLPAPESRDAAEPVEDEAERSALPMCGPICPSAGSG

Compound	kinase still bound, per cent of control (TNK2 (human)) [%]	kinase still bound, per cent of control (LCK (human)) [%]	kinase still bound, per cent of control (FLT1 (human)) [%]	kinase still bound, per cent of control (CDK4 CCND1 (human)) [%]	kinase still bound, per cent of control (AKT1 (human)) [%]	kinase still bound, per cent of control (STK32C (human)) [%]	kinase still bound, per cent of control (SRMS (human)) [%]	kinase still bound, per cent of control (NEK1 (human)) [%]	kinase still bound, per cent of control (RIPK1 (human)) [%]	kinase still bound, per cent of control (OXSR1 (human)) [%]	kinase still bound, per cent of control (MATK (human)) [%]	kinase still bound, per cent of control (ERN1 (human)) [%]	kinase still bound, per cent of control (RPS6KA6 KD2 (human)) [%]	kinase still bound, per cent of control (PDGFRB (human)) [%]	kinase still bound, per cent of control (CDK11B (human)) [%]	kinase still bound, per cent of control (NEK11 (human)) [%]	kinase still bound, per cent of control (MAPK8 (human)) [%]	kinase still bound, per cent of control (ACVRL1 (human)) [%]	kinase still bound, per cent of control (PKN2 (human)) [%]	kinase still bound, per cent of control (PAK7 (human)) [%]	other results
COc1cc(C(=O)N2CCC(N3CCN(C)CC3)CC2)ccc1Nc1ncc2c(n1)N(C)c1ccccc1C(=O)N2C	18	100	100	100	79	100	77	83	99	88	100	59	2.2	100	84	100	95	100	95	96	kinase still bound, per cent of control (MKNK2 (human)): 1.2%; kinase still bound, per cent of control (EPHA4 (human)): 89%; kinase still bound, per cent of control (CAMK4 (human)): 79%; kinase still bound, per cent of control (AURKC (human)): 50%; kinase still bound, per cent of control (DSTYK (human)): 16%; kinase still bound, per cent of control (MAP4K5 (human)): 100%; kinase still bound, per cent of control (EPHA3 (human)): 100%; kinase still bound, per cent of control (IKBKE (human)): 96%; kinase still bound, per cent of control (MAP2K4 (human)): 100%; kinase still bound, per cent of control (CPK1 (P.falciparum)): 100%; kinase still bound, per cent of control [1]: 89%; kinase still bound, per cent of control (CSNK1G3 (human)): 93%; kinase still bound, per cent of control (EPHA7 (human)): 97%; kinase still bound, per cent of control (FES (human)): 84%; kinase still bound, per cent of control (SRPK2 (human)): 100%; kinase still bound, per cent of control (MAP3K13 (human)): 100%; kinase still bound, per cent of control (ACVR1 (human)): 98%; kinase still bound, per cent of control (CAMKK1 (human)): 73%; kinase still bound, per cent of control (IRAK1 (human)): 100%; kinase still bound, per cent of control (MAP3K12 (human)): 81%
O=c1cc(N2CCOCC2)oc2c(-c3cccc4c3sc3ccccc34)cccc12	97	90	97	100	89	54	62	58	100	100	99	93	79	76	95	100	88	94	86	96	kinase still bound, per cent of control (MKNK2 (human)): 87%; kinase still bound, per cent of control (EPHA4 (human)): 82%; kinase still bound, per cent of control (CAMK4 (human)): 100%; kinase still bound, per cent of control (AURKC (human)): 100%; kinase still bound, per cent of control (DSTYK (human)): 99%; kinase still bound, per cent of control (MAP4K5 (human)): 89%; kinase still bound, per cent of control (EPHA3 (human)): 91%; kinase still bound, per cent of control (IKBKE (human)): 100%; kinase still bound, per cent of control (MAP2K4 (human)): 100%; kinase still bound, per cent of control (CPK1 (P.falciparum)): 98%; kinase still bound, per cent of control [1]: 100%; kinase still bound, per cent of control (CSNK1G3 (human)): 100%; kinase still bound, per cent of control (EPHA7 (human)): 85%; kinase still bound, per cent of control (FES (human)): 93%; kinase still bound, per cent of control (SRPK2 (human)): 78%; kinase still bound, per cent of control (MAP3K13 (human)): 100%; kinase still bound, per cent of control (ACVR1 (human)): 91%; kinase still bound, per cent of control (CAMKK1 (human)): 85%; kinase still bound, per cent of control (IRAK1 (human)): 96%; kinase still bound, per cent of control (MAP3K12 (human)): 90%
